Measurements taken from patent publication US20020103131A1, “Prevention of diabetes by administration of GnRH antagonists” (priority 2001, published 2002).
“Also recorded” adds a separate entry of the source.

How the values were obtained:
Format in all cases: in vivo
gonadectomized NOD mice = experiment: Serum total immunoglobulin G concentrations (single radial immunodiffusion) in gonadectomized NOD mice; settings: 100 μg subcutaneously six times weekly, 8 weeks of treatment, compared to vehicle / sham operated, FIG. 1
Excerpt: (§1) The well-characterized NOD mice were used throughout the study. Male and female mice were purchased from the Jackson Laboratory (Bar Harbor, Me.). These mice are art-recognized animal models used in diabetes research. (Makino et al., (1980) Breeding of a Non-obese Diabetic Strain of Mice. Exp Anim, 29, 1-13; Miyazaki, A. T., et al, (1985) Predominance of T Lymphocytes in Pancreatic Islets and Spleen in Prediabetic Non-obese Diabetic (Nod) Mice: a Longitudinal Study. Clin Exp immunol, 60, 622-630)
(§2) Both intact and gonadectomized mice (GDX) were used. […] To compare the effects of GnRH agonists and antagonists, gonadectomized animals were randomized at 14 to 18 days of age and begun immediately in one of the following main treatment groups: GnRH agonist; Antide; vehicle. One group of gonadectomized males was treated with Nal-Glu, as an additional control. […]
(§3) Total immunoglobulin G concentrations were measured by single radial immunodiffusion assay using immunodiffusion plates containing monospecific antiserum for IgG (ICN Biomedicals, Inc., Costa Mesa, Calif.). […] Glycosuria was scored by comparison to reference standards on a scale of 0 to 4 as follows: negative=0; 30 mg/dL=1; 100 mg/dL=2; 300 mg/dL=3;>1000 mg/dL=4.
(§4) Serum immunoglobulin measurements were compared by two-tailed Student's paired t-tests. Percentages of mice remaining diabetes-free was assessed by Mantel-Haenszel methodology. […]

[1] = test system: gonadectomized male NOD mice; experiment: Incidence and onset of diabetes in gonadectomized male NOD mice; settings: 100 μg subcutaneously six times weekly
Excerpt: as §1, §2, §3, §4

NOD mice = experiment: Serum prolactin by radioimmunoassay in treated NOD mice; settings: NOD mice under agonist or antagonist treatment
Experimental: Both intact and gonadectomized mice (GDX) were used. […] To compare the effects of GnRH agonists and antagonists, gonadectomized animals were randomized at 14 to 18 days of age and begun immediately in one of the following main treatment groups: GnRH agonist; Antide; vehicle. One group of gonadectomized males was treated with Nal-Glu, as an additional control.
GnRH (native decapeptide) was purchased from Bachem (Bubendorf, Switzerland). GnRH antagonist Antide (Acetyl-β-[2-Naphthyl]-D-Ala-D-p-Chloro-Phe-β-[3-Pyridyl]-D-Ala-Ser-Nε-]-Lys-Nε-[Nicotinoyl]-D-Lys-Leu-Nε-[Isopropyl]-Lys-Pro-D-Ala-NH2) was supplied by Contraceptive Development Branch (NICHHD) of the National Institutes of Health and Ares-Serono (Randolph, Mass.). A second GnRH antagonist, Nal-Glu (acetyl-D2Nal1, D4ClPhe2, D3Pal3, Arg5, Dglu6(AA), DAla10) was supplied by NICHHD and was used on a subset of mice. All references to GnRH agonist refer to the native decapeptide. Animals were injected subcutaneously in the nape of the neck six times weekly, in the a.m., with 100 μg of GnRH or GnRH antagonist in 100 μl of vehicle consisting of 50% propylene glycol and 50% double distilled water. […]
Serum testosterone concentrations were measured by RIA using a commercial kit (Coat-A-Count, Diagnostic Products Corporation, Los Angeles, Calif.). Serum LH and prolactin were measured by radioimmunoassay (RIA) using previously described methods. […]

With “GnRH agonist: GnRH (native decapeptide) purchased from Bachem; all references to GnRH agonist refer to the native decapeptide (QHWSYGLRPG; Gonadoliberin-1; UniProt P01148 24-33, looked up)” the “Serum IgG concentrations” value (gonadectomized NOD mice) was “further increased IgG levels compared to vehicle; also recorded: reciprocal effects”, the “Timing of onset of diabetes” value ([1]; gonadectomized NOD mice) was “accelerated the timing of onset of diabetes; also recorded: reciprocal effects” and the Incidence of diabetes ([1]; gonadectomized male NOD mice, compared to vehicle, FIG. 2) was “significantly increased the incidence”. For the same substance, the Serum prolactin levels (NOD mice) was “neither agonist nor antagonist treatment altered serum prolactin levels”.
